In US9895340B2, “Fluorinated benzofuran derivatives” (SciFluor Life Sciences, Inc., priority 2012, dated 2018):
Where two headings read alike, the source gives them in different places.

Assays:
Type in all cases: cell-based
[1] = target: T1, hNav1.5 sodium channels (Homo sapiens, UniProt Q14524); assay: hNav1.5 sodium channel automated patch clamp; details: CHO cells
T1 construct: expressed in transfected cells; host or cells: CHO cells
Experimental: (§1) Compounds of the present invention were tested for their anti-arrhythmic activity in a series of in vitro cardiac ion channel assays using cloned human channels expressed in CHO cells or HEK293 cells: • 1. Cloned L-type calcium channels (hCav1.2, encoded by the human CACNA1C gene and coexpressed with the (32 subunit, encoded by the human CACNB2 gene and the α2δ1 subunit encoded by the human CACNA2D1 gene, in CHO cells), responsible for Ica,L, high threshold calcium current. • 2. Cloned hERG potassium channels (encoded by the KCNH2 gene and expressed in human embryonic kidney, HEK293, cells) responsible for IKr. • 3. Cloned hKir2.1 potassium channels (encoded by the human KCNJ2 gene and expressed in HEK293 cells), responsible for IKI, inwardly rectifying potassium current. • 4. Cloned hKvLQT1/hminK potassium channels (encoded by the human KCNQ1 and KCNE1 genes and coexpressed in CHO cells), responsible for IKs, slow delayed rectifier potassium current. • 5. Cloned hKv1.5 potassium channels (encoded by the human KCNA5 gene and expressed in CHO cells), responsible for IKur, ultra-rapid delayed rectifier potassium current. • 6. Cloned hNav1.5 sodium channels (SCN5A gene, expressed in CHO cells). • 7. Cloned hKir3.1/hKir3.4 potassium channels (expressed by the human KCNJ3 and KCNJ5 genes and co-expressed in HEK293 cells) responsible for IACh, inwardly rectifying potassium current.
(§2) One concentration of a compound of the present invention was applied for a […] interval via disposable polyethylene micropipette tips to naïve cells (n≧2, where n=the number cells/concentration). Each solution exchange, performed in quadruplicate, consisted of aspiration and replacement of 45 μL volume of the extracellular well of the Sealchip16. Duration of exposure to the test compound was three minutes. For the hKir3.1/hKir3.4 assay, two concentrations of a compound of the present invention were used and the duration of exposure was 3 minutes.
(§3) In preparation for an automated patch clamp procedure recording session, intracellular solution was loaded into the intracellular compartments of the Sealchip16 or Qplate planar electrode. Cell suspension was pipetted into the extracellular compartments of the Sealchip16 or Qplate planar electrode. After establishment of a whole-cell configuration, membrane currents were recorded using dual-channel patch clamp amplifiers in the PatchXpress® or Qpatch HT® system. Before digitization, the current records were low-pass filtered at one-fifth of the sampling frequency.
(§4) Valid whole-call recordings met the following criteria: • 1. Membrane resistance (Rm)≧200 MΩ • 2. Leak current≦25% channel current. hCav1.2 Test Procedure
Onset and steady-state block of hNav1.5 current was measured using double pulse pattern consisting of a series of two depolarizing test pulses to −15 mV. From a holding potential of −80 mV, an initial hyperpolarizing conditioning pre-pulse (−120 mV amplitude, 200 ms duration,) was followed immediately by the first depolarizing test pulse to −15 mV (200 ms duration). This was followed by a hyperpolarizing conditioning inter-pulse to −80 mV (200 ms duration) and then a second depolarizing test pulse to −15 mV for 20 ms. The pulse pattern was repeated at 10 s intervals and peak current amplitudes at both test pulses were measured.

[2] = target: T2, hCav1.2/β2/α2δ channels (Homo sapiens, UniProt Q13936); assay: hCav1.2 L-type calcium channel automated patch clamp; details: CHO cells, read-out: Cav1.2 ion channel inhibition
T2 construct: expressed in transfected cells; host or cells: CHO cells
T2 sequence (Q13936 whole entry): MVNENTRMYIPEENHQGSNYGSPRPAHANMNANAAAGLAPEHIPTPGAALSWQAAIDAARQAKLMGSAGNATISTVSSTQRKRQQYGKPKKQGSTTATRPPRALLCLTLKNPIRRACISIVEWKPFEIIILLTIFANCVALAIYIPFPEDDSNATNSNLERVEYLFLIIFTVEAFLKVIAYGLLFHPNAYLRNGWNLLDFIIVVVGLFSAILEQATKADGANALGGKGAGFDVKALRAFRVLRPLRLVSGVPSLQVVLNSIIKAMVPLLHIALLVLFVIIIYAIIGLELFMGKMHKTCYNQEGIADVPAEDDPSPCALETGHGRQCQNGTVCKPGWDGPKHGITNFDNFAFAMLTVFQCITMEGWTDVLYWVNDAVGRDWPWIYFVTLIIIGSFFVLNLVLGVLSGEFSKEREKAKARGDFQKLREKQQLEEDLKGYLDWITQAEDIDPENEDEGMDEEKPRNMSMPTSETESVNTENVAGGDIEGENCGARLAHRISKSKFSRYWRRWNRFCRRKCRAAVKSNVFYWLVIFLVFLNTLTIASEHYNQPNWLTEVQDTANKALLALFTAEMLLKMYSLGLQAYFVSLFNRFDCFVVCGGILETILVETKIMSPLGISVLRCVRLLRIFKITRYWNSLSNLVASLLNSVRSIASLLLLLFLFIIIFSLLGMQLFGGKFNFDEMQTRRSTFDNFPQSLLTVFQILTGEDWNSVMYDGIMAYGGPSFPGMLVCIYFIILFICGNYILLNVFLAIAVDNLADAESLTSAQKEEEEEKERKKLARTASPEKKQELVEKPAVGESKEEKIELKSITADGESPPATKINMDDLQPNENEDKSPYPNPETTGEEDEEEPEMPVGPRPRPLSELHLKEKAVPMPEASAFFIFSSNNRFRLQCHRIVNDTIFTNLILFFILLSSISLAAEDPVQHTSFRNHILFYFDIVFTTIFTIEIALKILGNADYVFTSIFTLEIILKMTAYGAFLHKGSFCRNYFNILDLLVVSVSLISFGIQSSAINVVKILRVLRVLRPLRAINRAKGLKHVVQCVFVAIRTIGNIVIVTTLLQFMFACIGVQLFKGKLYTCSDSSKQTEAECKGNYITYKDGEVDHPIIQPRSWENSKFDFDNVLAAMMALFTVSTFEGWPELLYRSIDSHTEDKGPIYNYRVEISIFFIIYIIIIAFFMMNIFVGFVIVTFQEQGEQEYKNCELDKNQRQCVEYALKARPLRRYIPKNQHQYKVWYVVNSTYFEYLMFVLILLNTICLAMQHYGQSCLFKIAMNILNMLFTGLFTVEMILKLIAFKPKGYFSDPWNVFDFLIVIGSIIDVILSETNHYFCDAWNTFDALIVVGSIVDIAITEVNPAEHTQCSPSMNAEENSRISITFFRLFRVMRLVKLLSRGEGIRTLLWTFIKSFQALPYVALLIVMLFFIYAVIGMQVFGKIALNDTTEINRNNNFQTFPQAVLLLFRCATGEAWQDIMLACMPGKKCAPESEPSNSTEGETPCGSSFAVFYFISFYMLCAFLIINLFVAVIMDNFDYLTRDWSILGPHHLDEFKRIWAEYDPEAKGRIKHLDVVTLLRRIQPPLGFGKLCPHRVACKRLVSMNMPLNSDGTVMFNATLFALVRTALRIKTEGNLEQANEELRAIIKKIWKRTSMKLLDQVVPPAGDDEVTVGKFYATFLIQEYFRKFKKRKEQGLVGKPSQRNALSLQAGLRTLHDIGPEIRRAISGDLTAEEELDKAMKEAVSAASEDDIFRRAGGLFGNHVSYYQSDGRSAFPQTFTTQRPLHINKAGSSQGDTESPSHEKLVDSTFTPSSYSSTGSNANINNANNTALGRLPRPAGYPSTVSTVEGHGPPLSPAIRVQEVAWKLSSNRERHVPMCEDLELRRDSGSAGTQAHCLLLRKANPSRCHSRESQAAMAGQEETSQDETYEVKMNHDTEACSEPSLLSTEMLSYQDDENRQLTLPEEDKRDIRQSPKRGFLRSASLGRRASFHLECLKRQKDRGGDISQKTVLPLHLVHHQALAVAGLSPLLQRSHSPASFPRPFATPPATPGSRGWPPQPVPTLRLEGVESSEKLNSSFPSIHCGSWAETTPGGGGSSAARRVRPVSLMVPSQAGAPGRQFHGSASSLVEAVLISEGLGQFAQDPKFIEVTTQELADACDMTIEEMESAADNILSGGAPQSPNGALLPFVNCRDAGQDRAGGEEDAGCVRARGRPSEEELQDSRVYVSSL
T2 sequence (Q08289 whole entry partner): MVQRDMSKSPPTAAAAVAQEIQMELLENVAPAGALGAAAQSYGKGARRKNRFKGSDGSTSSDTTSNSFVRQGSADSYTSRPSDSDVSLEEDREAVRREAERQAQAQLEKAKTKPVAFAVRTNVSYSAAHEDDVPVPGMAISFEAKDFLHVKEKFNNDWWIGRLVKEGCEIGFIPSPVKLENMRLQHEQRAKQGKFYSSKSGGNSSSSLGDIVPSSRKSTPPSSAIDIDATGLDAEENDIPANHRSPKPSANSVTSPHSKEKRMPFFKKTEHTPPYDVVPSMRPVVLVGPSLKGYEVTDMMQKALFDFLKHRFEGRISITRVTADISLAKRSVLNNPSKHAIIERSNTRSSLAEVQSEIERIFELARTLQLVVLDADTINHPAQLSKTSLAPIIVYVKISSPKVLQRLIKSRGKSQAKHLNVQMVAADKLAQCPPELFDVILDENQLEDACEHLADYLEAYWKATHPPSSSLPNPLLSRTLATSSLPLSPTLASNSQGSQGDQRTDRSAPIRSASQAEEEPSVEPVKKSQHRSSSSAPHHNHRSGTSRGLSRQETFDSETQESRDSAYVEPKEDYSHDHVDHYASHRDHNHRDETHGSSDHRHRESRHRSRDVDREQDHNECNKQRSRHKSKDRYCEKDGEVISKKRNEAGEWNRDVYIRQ
T2 sequence (P54289 25-956 partner limits assumed): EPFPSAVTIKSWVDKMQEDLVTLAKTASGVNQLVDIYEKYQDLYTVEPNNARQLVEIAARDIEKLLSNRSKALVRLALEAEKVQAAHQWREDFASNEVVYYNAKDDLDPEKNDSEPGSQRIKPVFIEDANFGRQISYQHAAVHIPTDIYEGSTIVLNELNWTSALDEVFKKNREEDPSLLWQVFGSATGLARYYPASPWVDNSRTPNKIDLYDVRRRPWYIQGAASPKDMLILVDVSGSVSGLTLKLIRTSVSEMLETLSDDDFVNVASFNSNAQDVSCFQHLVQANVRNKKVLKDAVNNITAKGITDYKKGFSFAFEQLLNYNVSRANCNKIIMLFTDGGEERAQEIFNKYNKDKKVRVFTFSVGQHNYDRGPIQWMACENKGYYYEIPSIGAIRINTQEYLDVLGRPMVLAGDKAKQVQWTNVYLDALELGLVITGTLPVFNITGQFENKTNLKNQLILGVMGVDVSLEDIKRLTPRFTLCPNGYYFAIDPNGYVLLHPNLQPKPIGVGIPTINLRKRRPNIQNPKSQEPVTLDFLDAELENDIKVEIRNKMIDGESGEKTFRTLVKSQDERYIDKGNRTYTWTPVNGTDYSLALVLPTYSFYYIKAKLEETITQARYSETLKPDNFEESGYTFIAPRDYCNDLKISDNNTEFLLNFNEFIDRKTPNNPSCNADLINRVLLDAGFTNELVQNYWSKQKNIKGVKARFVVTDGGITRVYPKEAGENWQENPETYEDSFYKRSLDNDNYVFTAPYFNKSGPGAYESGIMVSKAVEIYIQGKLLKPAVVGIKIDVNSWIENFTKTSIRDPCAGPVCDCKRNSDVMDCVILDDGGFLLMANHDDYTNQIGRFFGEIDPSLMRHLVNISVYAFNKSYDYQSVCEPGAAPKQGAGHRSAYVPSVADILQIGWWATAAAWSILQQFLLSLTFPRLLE
T2 sequence (P54289 957-1103 partner limits assumed): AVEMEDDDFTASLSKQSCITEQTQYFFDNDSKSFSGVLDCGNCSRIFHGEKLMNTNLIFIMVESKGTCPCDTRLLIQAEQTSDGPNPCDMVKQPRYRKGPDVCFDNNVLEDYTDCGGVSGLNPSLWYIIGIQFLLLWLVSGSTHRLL
Experimental: as §1, §2
as §3, with “frequency. […]” for “frequency.”
Onset and steady state block of hCav1.2/β2/α2δ channels were measured using a stimulus voltage pattern consisting of a depolarizing test pulse (duration, 200 ms; amplitude, 10 mV) at 10 s intervals from a −80 mV holding potential. Peak current was measured during the step to 10 mV. […]

[3] = target: T3, hERG potassium channel (KCNH2, IKr) (Homo sapiens, UniProt Q12809); assay: hERG potassium channel automated patch clamp; details: HEK293 cells expressing cloned hERG potassium channels, read-out: hERG ion channel inhibition
T3 construct: expressed in transfected cells; host or cells: HEK293 cells
Experimental: One concentration of a compound of the present invention was applied for a five-minute interval via disposable polyethylene micropipette tips to naïve cells (n≧2, where n=the number cells/concentration). Each solution exchange, performed in quadruplicate, consisted of aspiration and replacement of 45 μL volume of the extracellular well of the Sealchip16. Duration of exposure to the test compound was three minutes.
Onset and block of hERG current was measured using a stimulus voltage pattern consisting of a 500 ms prepulse to −40 mV (leakage subtraction), a 2-second activating pulse to +40 mV, followed by a 2-second test pulse to −40 mV. Leakage current was calculated from the current amplitude evoked by the prepulse and subtracted from the total membrane current record.

[4] = target: T4, hKv1.5 potassium channels (Homo sapiens, UniProt P22460); assay: hKv1.5 potassium channel automated patch clamp; details: CHO cells, read-out: Kv1.5 ion channel inhibition
T4 construct: expressed in transfected cells; host or cells: CHO cells
T4 sequence (P22460 whole entry): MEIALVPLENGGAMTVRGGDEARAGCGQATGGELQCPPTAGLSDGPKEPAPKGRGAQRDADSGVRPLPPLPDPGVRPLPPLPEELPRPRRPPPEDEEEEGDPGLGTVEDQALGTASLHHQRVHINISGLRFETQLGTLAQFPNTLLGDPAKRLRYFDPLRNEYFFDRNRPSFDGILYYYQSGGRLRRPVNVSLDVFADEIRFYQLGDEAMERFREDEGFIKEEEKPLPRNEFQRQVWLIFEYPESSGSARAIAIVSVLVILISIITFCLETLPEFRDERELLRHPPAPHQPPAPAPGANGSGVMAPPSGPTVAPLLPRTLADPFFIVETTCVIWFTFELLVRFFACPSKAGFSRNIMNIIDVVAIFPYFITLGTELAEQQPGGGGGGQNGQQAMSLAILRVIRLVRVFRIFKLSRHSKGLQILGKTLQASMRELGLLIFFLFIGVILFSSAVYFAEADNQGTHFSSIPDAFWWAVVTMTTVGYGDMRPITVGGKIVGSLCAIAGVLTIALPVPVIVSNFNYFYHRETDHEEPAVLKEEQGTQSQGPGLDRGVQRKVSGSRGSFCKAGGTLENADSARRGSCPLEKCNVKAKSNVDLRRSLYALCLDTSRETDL
Experimental: as §1, §2
as §3, with “frequency. […]” for “frequency.”
Onset and steady state block of hKv1.5 current was measured using a pulse pattern with fixed amplitudes (depolarization: +20 mV amplitude, 300 ms duration) repeated at 10 s intervals from a holding potential of −80 mV. Current amplitude was measured at the end of the step to +20 mV.

[5] = target: T5, hKir2.1 potassium channels (Homo sapiens, UniProt P63252); assay: hKir2.1 potassium channel automated patch clamp; details: HEK293 cells, read-out: Kir2.1 ion channel inhibition
T5 construct: expressed in transfected cells; host or cells: HEK293 cells
T5 sequence (P63252 1-427): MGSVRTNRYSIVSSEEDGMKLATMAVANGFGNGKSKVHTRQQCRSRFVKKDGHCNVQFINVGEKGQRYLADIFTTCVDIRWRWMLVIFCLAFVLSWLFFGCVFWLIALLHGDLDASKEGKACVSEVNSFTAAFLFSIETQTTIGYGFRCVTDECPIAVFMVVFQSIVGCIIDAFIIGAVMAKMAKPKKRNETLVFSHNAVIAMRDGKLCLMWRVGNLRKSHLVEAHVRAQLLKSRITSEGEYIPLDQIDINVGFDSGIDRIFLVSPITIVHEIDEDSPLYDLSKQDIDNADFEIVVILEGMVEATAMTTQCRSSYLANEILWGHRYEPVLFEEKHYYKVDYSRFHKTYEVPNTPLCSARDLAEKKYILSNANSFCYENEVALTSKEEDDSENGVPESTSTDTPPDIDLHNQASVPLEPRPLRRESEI
Experimental: as §1, §2
as §3, with “Before digitization, the current records were low-pass filtered at one-fifth of the sampling frequency.” left out
Onset and steady state block of hKir2.1 current was measured using a pulse pattern with fixed amplitudes (hyperpolarization: −110 mV amplitude, 300 ms duration) repeated at 10 s intervals from a holding potential of −70 mV. Current amplitude was measured at the end of the step to −110 mV.

[6] = target: T6, hKvLQT1/hminK potassium channels (Homo sapiens, UniProt P51787); assay: hKvLQT1/hminK potassium channel automated patch clamp; details: CHO cells, read-out: KvLQT ion channel inhibition
T6 construct: expressed in transfected cells; host or cells: CHO cells
Experimental: as §1, §2
In preparation for an automated patch clamp procedure recording session, intracellular solution was loaded into the intracellular compartments of the Sealchip16 or Qplate planar electrode. […] After establishment of a whole-cell configuration, membrane currents were recorded using dual-channel patch clamp amplifiers in the PatchXpress® or Qpatch HT® system. […]
Onset and steady state block of hKvLQT1/hminK current was measured using a pulse pattern with fixed amplitudes (depolarization: +40 mV for 2 s; repolarization: −40 mV for 0.5 s) repeated at 15 s intervals from a holding potential of −80 mV. Current amplitude was measured at the end of the step to +40 mV. […] Leakage current was measured after chromanol 293B addition and subtracted from the total membrane current record.

[7] = target: T7, hKir3.1/hKir3.4 potassium channels (Homo sapiens, UniProt P48544+P48549); assay: hKir3.1/hKir3.4 potassium channel automated patch clamp; details: HEK293 cells; for inhibition at 1 µM: read-out: K(ach) @ 1 μM ion channel inhibition; for inhibition at 10 µM: read-out: K(ach) ion channel inhibition
T7 construct: expressed in transfected cells; host or cells: HEK293 cells
T7 sequence (P48549 1-501): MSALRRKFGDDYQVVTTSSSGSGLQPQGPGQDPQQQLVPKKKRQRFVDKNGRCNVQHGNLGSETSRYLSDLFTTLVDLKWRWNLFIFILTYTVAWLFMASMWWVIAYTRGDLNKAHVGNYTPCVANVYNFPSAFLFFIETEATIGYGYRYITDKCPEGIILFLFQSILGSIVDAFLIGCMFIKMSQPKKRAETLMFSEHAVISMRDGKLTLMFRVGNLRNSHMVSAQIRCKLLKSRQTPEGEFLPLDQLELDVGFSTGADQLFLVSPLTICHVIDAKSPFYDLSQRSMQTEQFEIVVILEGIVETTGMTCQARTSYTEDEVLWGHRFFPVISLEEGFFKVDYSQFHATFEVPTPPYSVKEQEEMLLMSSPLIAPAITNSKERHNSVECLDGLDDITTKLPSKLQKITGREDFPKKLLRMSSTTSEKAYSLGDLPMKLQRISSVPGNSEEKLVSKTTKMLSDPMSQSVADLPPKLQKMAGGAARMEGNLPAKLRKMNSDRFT
T7 sequence (P48544 1-419): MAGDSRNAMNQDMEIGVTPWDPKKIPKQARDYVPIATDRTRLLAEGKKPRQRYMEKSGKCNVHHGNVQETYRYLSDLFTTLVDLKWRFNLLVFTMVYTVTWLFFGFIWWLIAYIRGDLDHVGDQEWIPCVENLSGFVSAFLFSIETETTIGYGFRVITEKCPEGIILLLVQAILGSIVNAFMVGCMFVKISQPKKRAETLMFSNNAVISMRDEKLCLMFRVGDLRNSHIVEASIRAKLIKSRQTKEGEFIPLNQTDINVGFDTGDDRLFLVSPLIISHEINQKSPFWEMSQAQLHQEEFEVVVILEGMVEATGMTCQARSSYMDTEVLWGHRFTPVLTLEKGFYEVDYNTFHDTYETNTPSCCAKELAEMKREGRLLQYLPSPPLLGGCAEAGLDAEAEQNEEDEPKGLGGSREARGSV
Experimental: as §1, §2, §3, §4
The in vitro effects of the compounds of the present invention were evaluated at room temperature using the PatchXpress (Model 7000A, Molecular Devices, Union City, Calif.), an automated parallel patch clamp system.

[8] = phasic block, read-out: Nav1.5 phasic ion channel inhibition
[9] = tonic block, read-out: Nav1.5 tonic ion channel inhibition

inhibition at 10 µM [4] [%] | inhibition at 10 µM [5] [%] | inhibition at 10 µM [6] [%] | inhibition at 1 µM [7] [%] | inhibition at 10 µM [7] [%] | Structure (SMILES) | inhibition at 10 µM [1, 8] [%] | inhibition at 10 µM [1, 9] [%] | inhibition at 10 µM [2] [%] | inhibition at 3 min, 10 µM [3] [%]
54 | 0.3 | 49 | 16 | 49 | CCCCc1oc2ccccc2c1C(=O)c1cc(C(F)(F)F)c(OCCN(CC)CC)c(C(F)(F)F)c1 [Compound 1, (2-butylbenzofuran-3-yl)(4-(2-(diethylamino)ethoxy)-3,5-bis(trifluoromethyl)phenyl)methanone] | 26 | 11.5 | 101 | 55
25 | 9.7 | 8.4 | 2.1 | 11 | CCCCc1oc2ccccc2c1C(=O)c1ccc(OCCN(CC)CC)c(C(F)(F)F)c1 [Compound 3, (2-butylbenzofuran-3-yl)(4-(2-(diethylamino)ethoxy)-3-(trifluoromethyl)phenyl)methanone] | 86 | 48 | 2 | 74
21 | 2.7 | 2.5 | 1.4 | 4.6 | CCCCc1oc2ccccc2c1C(=O)c1cc(I)c(OCCN(CC)CC)c(C(F)(F)F)c1 [Compound 2, (2-butylbenzofuran-3-yl)(4-(2-(diethylamino)ethoxy)-3-iodo-5-(trifluoromethyl)phenyl) methanone] | 44 | 23 | 81 | 75

Structure (SMILES) | inhibition at 10 µM [4] [%] | inhibition at 10 µM [5] [%] | inhibition at 10 µM [6] [%] | inhibition at 1 µM [7] [%] | inhibition at 10 µM [7] [%] | inhibition at 10 µM [1, 8] [%] | inhibition at 10 µM [1, 9] [%] | inhibition at 10 µM [2] [%] | inhibition at 3 min, 10 µM [3] [%]
CCCCc1oc2ccccc2c1C(=O)c1cc(I)c(OCCN(CC)CC)c(I)c1 [Amiodarone, 2-n-butyl 3-[4-(2-diethylaminoethoxy) 3,5-diiodobenzoyl] benzofuran, reference compound] | 0.7 | 0.9 | -0.6 | 4.5 | 23 | 44 | 6.8 | 7.7 | –
